Measurements as given in patent US20210070748A1, “INHIBITORS OF BRUTONS TYROSINE KINASE” (Pharmacyclics LLC, priority 2015, published 2021).

Tests used:
Format in all cases: biochemical
BTK-WT = molecular target: T1, BTK-WT (Homo sapiens, UniProt Q06187); assay: Btk in vitro inhibitory activity (one of Method A TR-FRET, Method B electrophoretic mobility shift, Method C radiometric filter binding); details: E compounds, Table 17; read-out: IC50 BTK-WT
T1 construct: purified from insect cells as a full-length construct containing an N-terminal 6X-His tag; His6 (N); made in house; host or cells: insect cells (baculovirus Sf21 in Method B)
T1 sequence (Q06187 whole entry): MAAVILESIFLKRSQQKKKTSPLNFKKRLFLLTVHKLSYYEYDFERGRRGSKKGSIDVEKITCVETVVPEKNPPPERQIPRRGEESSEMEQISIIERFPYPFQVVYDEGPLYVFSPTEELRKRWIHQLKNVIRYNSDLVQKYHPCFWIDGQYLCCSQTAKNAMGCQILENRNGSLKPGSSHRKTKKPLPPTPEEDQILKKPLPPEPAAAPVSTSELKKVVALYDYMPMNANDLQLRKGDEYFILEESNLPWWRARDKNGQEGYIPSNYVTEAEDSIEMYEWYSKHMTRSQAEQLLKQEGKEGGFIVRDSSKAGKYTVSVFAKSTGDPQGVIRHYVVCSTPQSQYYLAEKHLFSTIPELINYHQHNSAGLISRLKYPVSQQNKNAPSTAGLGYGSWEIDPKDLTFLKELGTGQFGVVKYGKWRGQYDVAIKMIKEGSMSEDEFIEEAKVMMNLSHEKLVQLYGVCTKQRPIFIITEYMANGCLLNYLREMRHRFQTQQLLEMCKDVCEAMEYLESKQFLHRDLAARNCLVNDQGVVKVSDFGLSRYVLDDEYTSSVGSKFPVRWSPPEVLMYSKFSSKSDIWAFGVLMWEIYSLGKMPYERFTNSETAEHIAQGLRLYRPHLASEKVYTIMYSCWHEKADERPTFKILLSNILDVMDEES

JAK3 = molecular target: T2, JAK3 (Homo sapiens, UniProt P52333); assay: Inhibition of a panel of kinases, in vitro HotSpot kinase assay: JAK3; details: E compounds, Table 17; read-out: IC50 JAK3
T2 sequence (P52333 1-1124): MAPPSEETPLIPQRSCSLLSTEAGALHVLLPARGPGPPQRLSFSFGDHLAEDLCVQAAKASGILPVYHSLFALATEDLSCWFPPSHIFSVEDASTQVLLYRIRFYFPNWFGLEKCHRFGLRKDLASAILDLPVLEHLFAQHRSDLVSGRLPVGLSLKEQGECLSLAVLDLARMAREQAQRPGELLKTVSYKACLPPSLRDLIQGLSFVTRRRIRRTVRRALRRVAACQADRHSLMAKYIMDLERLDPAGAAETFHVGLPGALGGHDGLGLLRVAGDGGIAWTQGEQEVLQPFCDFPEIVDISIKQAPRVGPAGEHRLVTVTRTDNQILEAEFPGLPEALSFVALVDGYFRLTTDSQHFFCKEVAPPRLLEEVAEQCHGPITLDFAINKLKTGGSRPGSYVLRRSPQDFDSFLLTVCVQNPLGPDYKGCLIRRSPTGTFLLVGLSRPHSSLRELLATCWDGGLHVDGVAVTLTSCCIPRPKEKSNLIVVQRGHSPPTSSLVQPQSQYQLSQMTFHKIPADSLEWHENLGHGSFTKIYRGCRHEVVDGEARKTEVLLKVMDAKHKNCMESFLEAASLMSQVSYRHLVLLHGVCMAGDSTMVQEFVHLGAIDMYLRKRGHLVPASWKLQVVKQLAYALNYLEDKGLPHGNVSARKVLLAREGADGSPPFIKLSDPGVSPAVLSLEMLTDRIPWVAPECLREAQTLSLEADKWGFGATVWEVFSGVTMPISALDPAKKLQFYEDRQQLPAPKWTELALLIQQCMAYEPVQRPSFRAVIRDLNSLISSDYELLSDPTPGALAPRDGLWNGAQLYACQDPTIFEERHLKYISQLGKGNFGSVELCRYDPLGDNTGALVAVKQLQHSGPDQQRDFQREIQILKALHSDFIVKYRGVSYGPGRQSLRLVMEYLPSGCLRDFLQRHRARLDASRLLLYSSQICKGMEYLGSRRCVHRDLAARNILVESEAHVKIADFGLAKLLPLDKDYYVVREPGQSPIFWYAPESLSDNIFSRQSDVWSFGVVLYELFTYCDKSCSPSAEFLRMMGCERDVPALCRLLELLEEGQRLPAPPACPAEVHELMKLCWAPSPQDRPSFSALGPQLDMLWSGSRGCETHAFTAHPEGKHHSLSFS

LCK = LCK (Homo sapiens, UniProt P06239); assay: Inhibition of a panel of kinases, in vitro HotSpot kinase assay: LCK; details: E compounds, Table 17; read-out: IC50 LCK
LCK, sequence (P06239 whole entry): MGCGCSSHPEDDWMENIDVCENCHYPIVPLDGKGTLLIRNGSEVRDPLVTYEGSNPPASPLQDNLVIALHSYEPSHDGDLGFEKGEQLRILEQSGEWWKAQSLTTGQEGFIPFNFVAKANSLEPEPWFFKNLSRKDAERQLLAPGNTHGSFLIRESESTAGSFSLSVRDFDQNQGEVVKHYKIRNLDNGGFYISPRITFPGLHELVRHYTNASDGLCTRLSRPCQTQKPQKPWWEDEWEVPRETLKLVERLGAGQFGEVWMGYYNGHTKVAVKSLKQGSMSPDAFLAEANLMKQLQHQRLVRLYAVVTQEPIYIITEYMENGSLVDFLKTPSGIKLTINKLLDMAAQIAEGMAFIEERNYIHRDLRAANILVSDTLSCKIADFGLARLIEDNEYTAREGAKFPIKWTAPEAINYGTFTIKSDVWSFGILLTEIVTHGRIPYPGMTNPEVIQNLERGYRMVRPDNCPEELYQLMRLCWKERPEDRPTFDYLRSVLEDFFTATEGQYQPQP

EGFR = EGFR (Homo sapiens, UniProt P00533); assay: Inhibition of a panel of kinases, in vitro HotSpot kinase assay: EGFR; details: E compounds, Table 17
EGFR, sequence (P00533 25-1210): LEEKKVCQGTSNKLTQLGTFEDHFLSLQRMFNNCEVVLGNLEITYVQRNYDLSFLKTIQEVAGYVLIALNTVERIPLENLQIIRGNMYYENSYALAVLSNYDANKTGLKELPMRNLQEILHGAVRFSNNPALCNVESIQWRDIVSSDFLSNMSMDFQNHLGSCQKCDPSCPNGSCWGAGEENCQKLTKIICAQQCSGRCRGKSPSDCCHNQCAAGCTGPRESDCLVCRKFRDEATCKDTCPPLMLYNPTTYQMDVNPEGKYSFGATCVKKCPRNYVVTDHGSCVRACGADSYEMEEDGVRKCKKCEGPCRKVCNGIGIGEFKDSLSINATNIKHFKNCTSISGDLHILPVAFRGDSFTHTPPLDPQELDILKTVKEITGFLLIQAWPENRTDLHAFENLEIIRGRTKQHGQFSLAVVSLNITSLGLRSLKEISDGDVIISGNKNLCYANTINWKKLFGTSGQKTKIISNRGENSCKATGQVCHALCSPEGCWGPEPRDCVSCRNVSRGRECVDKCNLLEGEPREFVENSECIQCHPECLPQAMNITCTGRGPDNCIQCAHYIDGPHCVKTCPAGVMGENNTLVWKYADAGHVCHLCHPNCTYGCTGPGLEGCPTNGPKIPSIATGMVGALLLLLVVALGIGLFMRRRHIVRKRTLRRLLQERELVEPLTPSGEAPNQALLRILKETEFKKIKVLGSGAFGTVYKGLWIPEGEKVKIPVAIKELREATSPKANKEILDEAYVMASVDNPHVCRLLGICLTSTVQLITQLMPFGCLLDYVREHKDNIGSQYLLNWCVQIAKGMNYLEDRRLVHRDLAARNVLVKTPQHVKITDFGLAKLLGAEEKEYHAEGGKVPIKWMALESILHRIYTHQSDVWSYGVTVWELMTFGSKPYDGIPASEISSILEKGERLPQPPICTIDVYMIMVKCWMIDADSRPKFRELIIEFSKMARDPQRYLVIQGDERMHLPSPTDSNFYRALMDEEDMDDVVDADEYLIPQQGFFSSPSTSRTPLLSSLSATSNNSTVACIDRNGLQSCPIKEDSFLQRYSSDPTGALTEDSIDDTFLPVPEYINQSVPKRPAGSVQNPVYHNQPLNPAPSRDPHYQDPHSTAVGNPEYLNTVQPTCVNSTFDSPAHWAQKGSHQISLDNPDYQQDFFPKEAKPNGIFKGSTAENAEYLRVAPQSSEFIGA
Protocol: (§1) The degree of inhibition of a panel of kinases is determined using the in vitro HotSpot kinase assay (purified enzymes, ^33P-ATP, an appropriate substrate and 1 μM ATP).

SRC = SRC (Homo sapiens, UniProt P12931); assay: Inhibition of a panel of kinases, in vitro HotSpot kinase assay: SRC; details: E compounds, Table 17
SRC, sequence (P12931 whole entry): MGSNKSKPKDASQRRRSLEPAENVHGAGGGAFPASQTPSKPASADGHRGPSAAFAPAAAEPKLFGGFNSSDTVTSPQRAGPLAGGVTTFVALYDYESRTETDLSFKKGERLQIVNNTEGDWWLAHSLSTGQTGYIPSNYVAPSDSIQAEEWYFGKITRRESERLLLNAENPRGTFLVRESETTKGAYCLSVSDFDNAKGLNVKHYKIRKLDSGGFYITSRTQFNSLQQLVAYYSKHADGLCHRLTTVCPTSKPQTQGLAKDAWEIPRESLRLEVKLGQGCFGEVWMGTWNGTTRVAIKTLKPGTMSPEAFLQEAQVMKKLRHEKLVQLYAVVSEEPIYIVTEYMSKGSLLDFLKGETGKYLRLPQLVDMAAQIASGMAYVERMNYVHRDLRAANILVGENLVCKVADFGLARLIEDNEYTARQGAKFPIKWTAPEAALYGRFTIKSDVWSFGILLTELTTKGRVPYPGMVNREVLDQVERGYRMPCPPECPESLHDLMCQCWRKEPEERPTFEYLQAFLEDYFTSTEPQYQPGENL
Protocol: as §1

IC50 (BTK-WT) [nM] | IC50 (JAK3) [nM] | IC50 (LCK) [nM] | IC50 (EGFR) [nM] | IC50 (SRC) [nM] | Structure (SMILES)
≤ 10 | 1000 to 10000 | 10 to 100 | 1000 to 10000 | 10 to 100 | C[C@@H]1[C@H](NC(=O)c2ccc(C3CC3)cc2)CCCN1c1cnc(C(N)=O)c(Nc2ccc(N3CCN(C4COC4)C[C@@H]3C)cc2)n1 [Example E-142, 5-((2R,3R)-3-(4-cyclopropylbenzamido)-2-methylpiperidin-1-yl)-3-((4-((S)-2-methyl-4-(oxetan-3-yl)piperazin-1-yl)phenyl)amino)pyrazine-2-carboxamide]
≤ 10 | 100 to 1000 | 10 to 100 | > 10000 | 10 to 100 | C[C@@H]1[C@H](NC(=O)c2ccc(C(C)(C)N3CCCC3)cc2)CCCN1c1cnc(C(N)=O)c(Nc2cnn(C)c2)n1 [Example E-143, 3-((1-methyl-1H-pyrazol-4-yl)amino)-5-((2R,3R)-2-methyl-3-(4-(2-(pyrrolidin-1-yl)propan-2-yl)benzamido)piperidin-1-yl)pyrazine-2-carboxamide]
10 to 100 | > 10000 | 100 to 1000 | > 10000 | 100 to 1000 | C[C@@H]1[C@H](NC(=O)c2ccc(C3CC3)cc2)CCCN1c1cnc(C(N)=O)c(Nc2cnc(C3CCOCC3)nc2)n1 [Example E-144, 5-((2R,3R)-3-(4-cyclopropylbenzamido)-2-methylpiperidin-1-yl)-3-((2-(tetrahydro-2H-pyran-4-yl)pyrimidin-5-yl)amino)pyrazine-2-carboxamide]
≤ 10 | 100 to 1000 | 10 to 100 | 100 to 1000 | 10 to 100 | C[C@@H]1[C@H](NC(=O)c2cccc(C(C)(C)O)c2)CCCN1c1cnc(C(N)=O)c(Nc2cnn(C)c2)n1 [Example E-145, 5-((2R,3R)-3-(3-(2-hydroxypropan-2-yl)benzamido)-2-methylpiperidin-1-yl)-3-((1-methyl-1H-pyrazol-4-yl)amino)pyrazine-2-carboxamide]
≤ 10 | 1000 to 10000 | 10 to 100 | 1000 to 10000 | 10 to 100 | C[C@@H]1[C@H](NC(=O)c2cc(C(C)(C)C)nn2C)CCCN1c1cnc(C(N)=O)c(Nc2cnn(C)c2)n1 [Example E-146, 5-((2R,3R)-3-(3-(tert-butyl)-1-methyl-1H-pyrazole-5-carboxamido)-2-methylpiperidin-1-yl)-3-((1-methyl-1H-pyrazol-4-yl)amino)pyrazine-2-carboxamide]
≤ 10 | 100 to 1000 | 10 to 100 | 100 to 1000 | 10 to 100 | C[C@@H]1[C@H](NC(=O)c2ccc(C3CC3)cc2)CCCN1c1cnc(C(N)=O)c(Nc2ccc(N3CCN(C)C[C@@H]3C)cc2)n1 [Example E-148, 5-((2R,3R)-3-(4-cyclopropylbenzamido)-2-methylpiperidin-1-yl)-3-((4-((S)-2,4-dimethylpiperazin-1-yl)phenyl)amino)pyrazine-2-carboxamide]
100 to 1000 | 1000 to 10000 | 1000 to 10000 | 1000 to 10000 | 1000 to 10000 | C[C@@H]1[C@H](NC(=O)c2noc(C(C)(C)C)n2)CCCN1c1cnc(C(N)=O)c(Nc2cnn(C)c2)n1 [Example E-149, 5-(tert-butyl)-N-((2R,3R)-1-(5-carbamoyl-6-((1-methyl-1H-pyrazol-4-yl)amino)pyrazin-2-yl)-2-methylpiperidin-3-yl)-1,2,4-oxadiazole-3-carboxamide]
100 to 1000 | 1000 to 10000 | 1000 to 10000 | > 10000 | 1000 to 10000 | Cn1cc(Nc2nc(N3CCCC(C)(NC(=O)c4ccc(C5CC5)cc4)C3)cnc2C(N)=O)cn1 (stereo not shown) [Example E-150, 5-(3-(4-cyclopropylbenzamido)-3-methylpiperidin-1-yl)-3-((1-methyl-1H-pyrazol-4-yl)amino)pyrazine-2-carboxamide]
≤ 10 | 100 to 1000 | 100 to 1000 | 100 to 1000 | 10 to 100 | CCC(O)(CC)c1ccc(C(=O)N[C@@H]2CCCN(c3cnc(C(N)=O)c(Nc4cnn(C)c4)n3)[C@@H]2C)cc1 [Example E-151, 5-((2R,3R)-3-(4-(3-hydroxypentan-3-yl)benzamido)-2-methylpiperidin-1-yl)-3-((1-methyl-1H-pyrazol-4-yl)amino)pyrazine-2-carboxamide]
≤ 10 | 100 to 1000 | 10 to 100 | 1000 to 10000 | 10 to 100 | Cc1cc(C(=O)N[C@@H]2CCCN(c3cnc(C(N)=O)c(Nc4cnn(C)c4)n3)[C@@H]2C)ccc1C(C)(C)O [Example E-152, 5-((2R,3R)-3-(4-(2-hydroxypropan-2-yl)-3-methylbenzamido)-2-methylpiperidin-1-yl)-3-((1-methyl-1H-pyrazol-4-yl)amino)pyrazine-2-carboxamide]
≤ 10 | 1000 to 10000 | 10 to 100 | 1000 to 10000 | 10 to 100 | C[C@@H]1[C@H](NC(=O)c2ccc3c(c2)C(C)(C)OC3)CCCN1c1cnc(C(N)=O)c(Nc2cnn(C)c2)n1 [Example E-153, 5-((2R,3R)-3-(3,3-dimethyl-1,3-dihydroisobenzofuran-5-carboxamido)-2-methylpiperidin-1-yl)-3-((1-methyl-1H-pyrazol-4-yl)amino)pyrazine-2-carboxamide]
≤ 10 | 100 to 1000 | 10 to 100 | 1000 to 10000 | 10 to 100 | C[C@@H]1[C@H](NC(=O)c2ccc(-c3ncco3)cc2)CCCN1c1cnc(C(N)=O)c(Nc2cnn(C)c2)n1 [Example E-154, 3-((1-methyl-1H-pyrazol-4-yl)amino)-5-((2R,3R)-2-methyl-3-(4-(oxazol-2-yl)benzamido)piperidin-1-yl)pyrazine-2-carboxamide]
≤ 10 | 100 to 1000 | 10 to 100 | 100 to 1000 | 10 to 100 | Cc1nc(-c2ccc(C(=O)N[C@@H]3CCCN(c4cnc(C(N)=O)c(Nc5cnn(C)c5)n4)[C@@H]3C)cc2)cs1 [Example E-155, 3-((1-methyl-1H-pyrazol-4-yl)amino)-5-((2R,3R)-2-methyl-3-(4-(2-methylthiazol-4-yl)benzamido)piperidin-1-yl)pyrazine-2-carboxamide]

Structure (SMILES) | IC50 (BTK-WT) [nM] | IC50 (JAK3) [nM] | IC50 (LCK) [nM] | IC50 (EGFR) [nM] | IC50 (SRC) [nM]
C[C@@H]1[C@H](NC(=O)c2ccc(C(C)(C)O)cc2)CCCN1c1cnc(C(N)=O)c(Nc2ccc(C3(C)CCN(C4CC4)CC3)cc2)n1 [Example E-147, 3-((4-(1-cyclopropyl-4-methylpiperidin-4-yl)phenyl)amino)-5-((2R,3R)-3-(4-(2-hydroxypropan-2-yl)benzamido)-2-methylpiperidin-1-yl)pyrazine-2-carboxamide] | ≤ 10 | 100 to 1000 | < 10 | 100 to 1000 | ≤ 10
